Test results: US20080008734A1, “Reduction of skin irritation caused by biomedical electrodes” (priority 2006, published 2008)

Legend:
skin = assay: Stimulation erythema with antioxidant incorporated in the conductive hydrogel adhesive; assay type: in vivo; details: in UV cured acrylic hydrogel adhesive; this amount gave a very weak adhesive that cohesively failed
Text: In the majority of conductive hydrogel adhesives used in these biomedical electrodes are UV cured acrylics formed by the free radical polymerization of hydrophilic acrylic monomers in water. UV light generates free radicals from photoinitiators, however antioxidants react with these free radicals thereby inhibiting the polymerization of the acrylic monomers. Antioxidants such as MEHQ are used to preserve acrylic monomers until use. […] A few ppm of the very potent antioxidant Astaxathin inhibited polymerization. The greater than 1500 ppm of MEHQ alone that was needed to prevent and/or alleviate stimulation erythema gave a very weak hydrogel adhesive that cohesively failed leaving residue on the skin.

[1] = Stability of SAP in the aqueous environment of hydrogel adhesives; assay type: physicochemical; details: pH 4.0±0.5 aqueous environment of the hydrogel adhesives
Text: (See U.S. Pat. No. 6,842,636 B2 to Perrault, et al. and U.S. Pat. No. 6,115,625 to Heard et al.).

| stability over time [1] | SMILES | amount of MEHQ alone needed to prevent and/or alleviate stimulation erythema (skin) |
| --- | --- | --- |
| – | COc1ccc(O)cc1 [MEHQ, monomethyl ether of hydroquinone] | greater than 1500 ppm |
| not stable over time | O=C1O[C@H](C(O)CO)C(O)=C1OP(=O)(O)O (some centres unmarked) [SAP, Sodium Ascorbyl Phosphate] | – |
